Laboratory results reported in US20090252680A1, “NOVEL COMPOUND WITH AFFINITY FOR AMYLOID” (NIHON- MEDI-PHYSICS CO., LTD, priority 2006, published 2009).
Read-outs that look alike come from different tables or passages of the source.

What was measured:
[1] = Measurement of transferability into brain and clearance; details: rats, intravenous injection (tail vein); for Radioactive accumulation per unit weight of brain, after 2 min.: 2 min after injection; for Radioactive accumulation per unit weight of brain, after 5 min.: 5 min after injection; for Radioactive accumulation per unit weight of brain, after 30 min.: 30 min after injection; for Radioactive accumulation per unit weight of brain, after 60 min.: 60 min after injection
Method: The rats were sacrificed by bleeding from abdominal artery, and brains were removed and subjected to measurement of mass of brains and further subjected to measurement of radioactivity (hereinafter referred to as A in this Example) with a single channel analyzer (detector type: SP-20 manufactured by OHYO KOKEN KOGYO Co., Ltd.) 2, 5, 30 and 60 minutes after the injection. Also, radioactivity (hereinafter referred to as B in this Example) of the remain of the whole body was measured in the same manner as above.
The same procedures as above were performed to calculate radioactive accumulation per unit weight of brain (% ID/g) at the respective time points (Comparative Example 2).
Three animals were used for Example 15, Example 16 and Reference Example 2 at the respective time points.

intracerebral amyloid [2] = target: T1, intracerebral amyloid (Homo sapiens, UniProt P05067); assay: Confirmation of imaging of amyloid in brain (autoradiogram of brain slice, amyloid injected into amygdaloid nucleus); format: in vivo, male Wistar rat; details: 60 minutes after intravenous injection
T1 construct: Aβ1-42 (manufactured by Wako); purchased Wako
Method: (§1) (1) Aβ1-42 (manufactured by Wako) was dissolved in phosphate buffer (pH 7.4) and shaken at 37° C. for 72 hours, to obtain a 1 mg/mL suspension of aggregated Aβ (hereinafter referred to as amyloid suspension in this Example).
(§2) (2) 2.5 μL (corresponding to 25 μg) of the amyloid suspension was injected under thiopental anesthesia into an amygdaloid nucleus on one side of a male Wistar rat (7-week old). As a control, 2.5 μL of a phosphate buffered physiological saline solution (pH 7.4) was injected into an amygdaloid nucleus on the other side of the rat. The rats were examined 1 day after the injection of the amyloid suspension and the phosphate buffered physiological saline solution (pH 7.4).
(§3) This sample solution was injected under thiopental anesthesia into the rat through the tail vein (dosage: 0.5 mL, dosed radioactivity: 16 MBq equivalent).
(§4) (4) Brain was removed 60 minutes after the injection to prepare a brain slice of 10 μm in thickness with a microtome (type: CM3050S, manufactured by LEICA). The brain slice was exposed to an imaging plate for 20 hours, and then image analysis was carried out by use of a Bio-imaging Analyzer (type: BAS-2500; manufactured by FUJIFILM Corporation).
(§5) (5) After the completion of the image analysis using the Bio-imaging Analyzer, pathological staining with Thioflavin T was carried out to perform imaging by use of a fluorescence microscope (manufactured by NIKON Corporation; type: TE2000-U model; excitation wavelength: 400-440 nm; detection wavelength: 470 nm).

intracerebral amyloid [3] = assay: as above; format: in vivo, male Wistar rat; details: 60 minutes after intravenous injection, control side
Method: as §1, §2, §3, §4, §5

[4] = Measurement of partition coefficient based on the octanol extraction method; details: octanol / 10 mmol/L phosphate buffer (pH 7.4)
Method: To 2 mL of octanol, 10 μL each of the prepared sample solutions was respectively added, and 2 mL of a 10 mmol/L phosphate buffer (pH 7.4) was further added, followed by stirring for 30 seconds. After the mixture was centrifuged with a low-speed centrifuge (2000 rpm×60 min.), the octanol layer and the water layer were sampled each in an amount of 1 mL, and subjected to measurement of radioactivity count with an autowell gamma system (Type: ARC-301B, manufactured by Aloka). Using the obtained radioactivity count, logPoctanol was calculated in accordance with the equation (2).

[5] = [125I]-labeled, normal mice; cited from earlier work
amyloid = details: [125I]-labeled compounds; cited from earlier work
[6] = [11C]-labeled, rats; cited from earlier work
[7] = target: amyloid (aggregated Aβ1-42) (Homo sapiens, UniProt P05067)
Source text: Affinity of the present compounds with amyloid was examined by the following in vitro binding tests.

T1 sequence (P05067 672-713): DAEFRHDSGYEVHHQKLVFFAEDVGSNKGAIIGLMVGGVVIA
Chain of amyloid (aggregated Aβ1-42) (P05067 672-713): as above

Fc1ccc(-c2cn3cc([123I])ccc3n2)cc1
Radioactive accumulation per unit weight of brain, after 2 min. [1]: 1.00 % ID/g
Radioactive accumulation per unit weight of brain, after 5 min. [1]: 0.72 % ID/g
Radioactive accumulation per unit weight of brain, after 30 min. [1]: 0.12 % ID/g
Radioactive accumulation per unit weight of brain, after 60 min. [1]: 0.05 % ID/g
Accumulation of radioactivity in the amygdaloid nucleus on the side injected with amyloid suspension (intracerebral amyloid [2]): marked accumulation of radioactivity
Accumulation of radioactivity in the amygdaloid nucleus on the side injected with physiological saline solution (intracerebral amyloid [3]): no significant accumulation of radioactivity
logPoctanol value [4]: 2.3

COc1ccc2nc(-c3ccc([123I])cc3)cn2c1
Radioactive accumulation per unit weight of brain, after 2 min. [1]: 1.26 % ID/g
Radioactive accumulation per unit weight of brain, after 5 min. [1]: 0.89 % ID/g
Radioactive accumulation per unit weight of brain, after 30 min. [1]: 0.19 % ID/g
Radioactive accumulation per unit weight of brain, after 60 min. [1]: 0.09 % ID/g
Accumulation of radioactivity in the amygdaloid nucleus on the side injected with amyloid suspension (intracerebral amyloid [2]): marked accumulation of radioactivity
Accumulation of radioactivity in the amygdaloid nucleus on the side injected with physiological saline solution (intracerebral amyloid [3]): no significant accumulation of radioactivity
logPoctanol value [4]: 2.3

COc1ccc(-c2cn3cc([123I])ccc3n2)cc1
Radioactive accumulation per unit weight of brain, after 2 min. [1]: 1.04 % ID/g
Radioactive accumulation per unit weight of brain, after 5 min. [1]: 0.72 % ID/g
Radioactive accumulation per unit weight of brain, after 30 min. [1]: 0.12 % ID/g
Radioactive accumulation per unit weight of brain, after 60 min. [1]: 0.04 % ID/g
Accumulation of radioactivity in the amygdaloid nucleus on the side injected with amyloid suspension (intracerebral amyloid [2]): marked accumulation of radioactivity
Accumulation of radioactivity in the amygdaloid nucleus on the side injected with physiological saline solution (intracerebral amyloid [3]): no significant accumulation of radioactivity
logPoctanol value [4]: 1.7

CN(C)c1ccc(-c2nc3ccc(I)cc3o2)cc1 [IBOX, 6-iodo-2-[4′-(N,N-dimethylamino)phenyl]benzoxazole]
Clearance from normal tissues [5]: insufficient in clearance from normal tissues
Transfer into brain [5]: transferred into brain 2 minutes after administration

CN(C)c1ccc(-c2cn3cc(I)ccc3n2)cc1 [IMPY, 6-iodo-2-[4′-(N,N-dimethylamino)phenyl]imidazo[1,2-a]pyridine]
Clearance from normal tissues (amyloid): rapid clearance from normal tissues
Transfer to brain and accumulation at amyloid (amyloid): transferring to brain and accumulating at amyloid after administration

CNc1ccc(/C=C/c2ccc(O)cc2)cc1 [SB-13, (E)-4-methylamino-4′-hydroxystilbene]
Clearance from normal tissues [6]: it cannot be said that the clearance is sufficiently fast

CN(C)c1ccc(-c2nc3ccc(I)cc3s2)cc1 [TZDM, 6-iodo-2-[4′-(N,N-dimethylamino)phenyl]benzothiazole]
Clearance from normal tissues [5]: insufficient in clearance from normal tissues
Transfer into brain [5]: transferred into brain 2 minutes after administration

CN(C)c1ccc(-c2cn3cc([123I])ccc3n2)cc1 [[^123I]-IMPY, reference compound]
Radioactive accumulation per unit weight of brain, after 2 min. [1]: 1.19 % ID/g
Radioactive accumulation per unit weight of brain, after 5 min. [1]: 0.97 % ID/g
Radioactive accumulation per unit weight of brain, after 30 min. [1]: 0.23 % ID/g
Radioactive accumulation per unit weight of brain, after 60 min. [1]: 0.09 % ID/g
logPoctanol value [4]: 1.9

COc1ccc2nc(-c3ccc([125I])cc3)cn2c1 [[^125I]-2-(4′-iodophenyl)-6-methoxyimidazo[1,2-a]pyridine]
Binding to amyloid [7]: capable of binding to amyloid
Radioactive count (A−B) specifically binding to amyloid versus amyloid concentration ([7]; amyloid 25, 62.5, 250, 625 and 1000 nmol/L, 22° C., 3 hours): showed a tendency to increase with increment of the concentration of amyloid

CN(C)c1ccc(/C=C/c2ccc(I)cc2)cc1 [m-I-SB, (E)-4-dimethylamino-4′-iodostilbene]
Clearance from normal tissues [5]: insufficient in clearance from normal tissues
Transfer into brain [5]: transferred into brain 2 minutes after administration
